From patent US5583000A, “Protease-binding compounds and methods of use” (priority 1993, dated 1996)
Converted amounts (≈) assume the structure as drawn. Like-named read-outs stand apart in the source and are kept apart here.

Experiments:
HIV-1 protease = HIV-1 protease (Human immunodeficiency virus type 1 group M subtype B, UniProt P03369); assay: biochemical
HIV-2 protease = target: T1, HIV-2 protease (Human immunodeficiency virus type 2 subtype A, UniProt P04584); assay: biochemical; settings: 1M NaCl
T1 construct: the coding region of the 99-amino acid protease; made in house; host or cells: Saccharomyces cerevisiae strain AB110, plasmid pHIV2PR115
T1 sequence (P04584 514-612 limits assumed): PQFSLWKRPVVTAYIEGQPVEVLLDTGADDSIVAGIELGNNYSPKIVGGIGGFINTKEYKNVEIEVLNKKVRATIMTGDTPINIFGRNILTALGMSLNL
Method: The decapeptide was synthesized by conventional solid-state methods. Reactions were carried out and fractionated by HPLC. Conversion of the decapeptide to the two pentapeptides was quantitated by integration of the peak areas and comparison to product standard curves.
Enzymatic Inhibition. […] Each data point was done in triplicate and initial enzyme rates were fit to the Michaelis-Menten equation using a nonlinear regression program ("Enzfitter" from Biosoft).

[1] = HIV-1 Protease IC50 (μM) 1M NaCl
[2] = HIV-1 Protease IC50 (μM) 1M NaCl, 1M NaCl
[3] = read-out: HIV-1 Protease IC50 (μM) 1M NaCl

Row | SMILES | IC50 (HIV-1 protease; [1]) [µM] | IC50 (HIV-2 protease) [µM] | CC50 at 6 h (in vitro) [µM] | solubility (physchem) [µM] | HIV-1 Protease Therapeutic Index (LD50 /IC50) (HIV-1 protease) | further results
1 | CC(CCN1CCC(O)(c2ccc(Cl)cc2)CC1)C(=O)c1ccc(F)cc1 (stereo not drawn) [UCSF50] | 100 | 126 | 90 | > 500 | – | –
2 | O=C(CCCN1CCC(O)(c2ccc(Cl)cc2)CC1)c1ccccc1-c1ccccc1 [UCSF51, 4-(4-(p-chlorophenyl)-4-hydroxypiperidinyl)-2'-phenylbutyrophenone] | 40 | 68 | 45 | < 250 | – | –
3 | O=C(CCCN1CC=C(c2ccc(Cl)cc2)CC1)c1ccc(F)cc1 [UCSF11, 4-[4-(p-chlorophenyl)]-N-[4-(4'-fluorobutyrophenone)]-1,2,5,6-tetrahydropyridine] | – | 310 | 250 | < 250 | – | IC50 (HIV-1 protease; 1M NaCl): 750 µM; HIV-1 Protease Therapeutic Index (LD50 /IC50) (HIV-1 protease; LD50/IC50): 0.3
4 | OC1(c2ccc(Cl)cc2)CCN(CCCC(O)(c2ccccc2)c2ccc(F)cc2)CC1 (stereo not drawn) [UCSF24, 4-[4-(p-chlorophenyl)-4-hydroxypiperidinyl]-1-phenyl-1-(p-fluorophenyl)-butan-1-ol] | 62 | – | 25 | > 200 | 0.4 | –
5 | O=C(CCCN1CCC(O)(c2ccc(Cl)cc2)C(O)C1)c1ccc(F)cc1 (stereo not drawn) [UCSF20, 4-[4-(p-chlorophenyl)-3,4-dihydroxypiperidinyl)-4'-fluorobutyrophenone] | 675 | – | – | > 250 | 0.26 | –
6 | COCCN(CCN1CCC(O)(c2ccc(Cl)cc2)CC1)Cc1ccccc1 [UCSF58, 2-[4-(4-chlorophenyl)-4-hydroxypiperidinyl]-N-benzyl-N-(2-methoxyethyl)ethylamine] | 300 | 290 | – | > 500 | < 0.3 | CC50 at 4 h (in vitro): 110 µM
7 | OC1(c2ccccc2)CCN(CCCC(O)(c2ccccc2)c2ccc3ccccc3n2)CC1 (stereo not drawn) [UCSF32, 4-(4-phenyl-4-hydroxypiperidinyl)-1-phenyl-1-[α-(2-azanaphthyl)]-butan-1-ol] | 60 | 80 | 25 | – | 0.4 | –
8 | C#CCC(CC#C)(CCN1CCC(O)(c2ccc(Cl)cc2)CC1)C(=O)c1ccc(F)cc1 [UCSF69] | 50 | 60 | 220 | < 100 | – | –
9 | OC1(c2ccc(Cl)cc2)CCN(CCCN(CCc2ccccc2)Cc2ccccc2)CC1 [UCSF61, 3-[4-(4-chlorophenyl)-4-hydroxypiperidinyl]-N-benzyl-N-(2-phenyl-ethyl)-propylamine] | 220 | 230 | 40 | < 500 | 0.2-0.4 | –
10 | OC1(c2ccc(Cl)cc2)CCN(CCCC(O)(c2ccccc2)c2cccc(-c3ccccc3)c2)CC1 (stereo not drawn) [UCSF57, 4-(4-(p-chlorophenyl)-4-hydroxypiperidinyl)-1-phenyl-1-(3'-phenylphenyl)-butan-1-ol] | 10 | 14 | – | < 500 | – | CC50 at 4 h (in vitro): 25 µM
11 | Cc1ccc(C(=O)CCC(c2ccccc2)N2CCC(O)(c3ccc(Cl)cc3)CC2)cc1 (stereo not drawn) [UCSF44, 4-[4-(p-chlorophenyl)-4-hydroxypiperidinyl]-4-phenyl-4'-methylbutyrophenone] | 35 | 43 | 200 | < 25 | 5.7(0.7) | –
12 | CC[C@@H]1CSC(CCCN2CCC(O)(c3ccc(Cl)cc3)CC2)(c2ccc(F)cc2)O1 (stereo partly drawn) [UCSF79] | 30 | 68 | 35 | > 250 | – | –
13 | O=C(CCCN1CCC(O)(c2ccccc2)CC1)c1ccc(F)cc1 [UCSF31, 4-(4-phenyl-4-hydroxypiperidinyl)-4'-fluorobutyrophenone] | 230 | 495 | > 250 | > 250 | > 1.1 | –
14 | O=C(CCCC1(O)CCC(O)(c2ccc(Cl)cc2)CC1)c1ccccc1 (stereo not drawn) [UCSF45] | – | – | – | – | – | IC50 (HIV-1 protease; [2]): > 1000 µM
15 | O=C(CCC[N+]1([O-])CCC(O)(c2ccc(Cl)cc2)CC1)c1cccc(-c2ccccc2)c1 (stereo not drawn) [UCSF67] | 80 | 10 | > 25 | > 25 | 0.3 | –
16 | OC1(c2ccccc2)CCN(CCCC2(c3ccccc3)OCCO2)CC1 [UCSF30, (1,2-ethyloxoacetal)-4-(4-phenyl-4-hydroxypiperidinyl)butyrophenone] | 265 | 500 | > 250 | > 250 | 1 | –
17 | OCC1(c2ccccc2)CCN(CCCC2(c3ccc(F)cc3)OCCO2)CC1 [UCSF53] | > 2500 | – | 500 | < 50 | – | –

Row | SMILES | IC50 (HIV-1 protease; [1]) [µM] | IC50 (HIV-2 protease) [µM] | CC50 at 6 h (in vitro) [µM] | solubility (physchem) [µM] | HIV-1 Protease Therapeutic Index (LD50 /IC50) (HIV-1 protease) | further results
18 | OCCNN=C(CCCN1CCC(O)(c2ccc(Cl)cc2)CC1)c1ccc(F)cc1 [UCSF14] | 50 | 90 | 500 | 500 (≈ 217 µg/mL) | 10 | –
19 | OC1(c2ccc(Cl)cc2)CCN(CCN(Cc2ccccc2)Cc2ccccc2)CC1 [UCSF46, 2-[4-(4-chlorophenyl)-4-hydroxypiperidinyl]-(N,N-dibenzyl)ethylamine] | 30 | 34 | 20 | > 500 | 0.7 | –
20 | O=C(CCCN1CCC(O)(c2ccc(Cl)cc2)CC1)c1ccccc1 [UCSF62] | 100 | 40 | 380 | < 250 | – | –
21 | Cc1ccc(C2(CCC(c3ccccc3)N3CCC(O)(c4ccc(Cl)cc4)CC3)SCCS2)cc1 (stereo not drawn) [UCSF48] | 7 | 10 | – | – | – | inhibition of HIV-1 protease at the lower salt concentrations (HIV-1 protease): Very little inhibition; inhibition of HIV-1 protease compared with other compounds (HIV-1 protease): slightly better inhibitor than USCF42 at 1M NaCl
22 | CSCC(O)(CCCN1CCC(O)(c2ccc(Cl)cc2)CC1)c1ccc(F)cc1 (stereo not drawn) [UCSF39, 5-[4-(4-chlorophenyl)-4-hydroxypiperidinyl]-2-(4-fluorophenyl)pentan-2-ol-1-methylsulfide] | 75 | 135 | 90 | > 500 | 1.2 | –
23 | OC1(c2ccc(Cl)cc2)CCN(CCCC2(c3ccc(F)cc3)SCc3cccc(c3)CS2)CC1 [UCSF21, (1,3-benzenedimethanethioacetal)-4-[4-(p-chlorophenyl)-4-hydroxypiperidinyl]-4'-fluorobutyrophenone] | 25 | 75 | > 500 | < 250 | > 20(10) | –
24 | OC1(c2ccc(Cl)cc2)CCN(CCCC(O)(Cc2ccccc2)c2ccc(F)cc2)CC1 (stereo not drawn) [UCSF25] | 87 | 75 | 20 | – | 0.2 | –
25 | OC1(c2ccc(Cl)cc2)CCN(CCCC2(c3cccc(-c4ccccc4)c3)SCCS2)CC1 [UCSF59] | 8 | 7 | – | < 500 | – | CC50 at 4 h (in vitro): 45 µM
26 | OC1(c2ccc(Cl)cc2)CCN(CCCC2(c3ccc(F)cc3)SCCCCS2)CC1 [UCSF23, (1,4-butanethioacetal)-4-[4-(p-chlorophenyl)-4-hydroxypiperidinyl]-4'-fluorobutyrophenone] | 20 | 71 | 25 | > 250 | 1.25 | –
27 | O=C(CCCN1CCC(c2ccccc2)CC1)c1ccc(F)cc1 [UCSF19] | – | 323 | – | – | – | IC50 (HIV-1 protease; [2]): 250 µM
28 | O=C(CCC[n+]1ccc(-c2ccc(Cl)cc2)cc1)c1ccc(F)cc1 [UCSF17, 4-[4-(p-chlorophenyl)l-N-[4-(4'-fluorobutyrophenone)]pyridinium bromide] | – | – | 500 | > 250 | – | IC50 (HIV-1 protease; 1M NaCl): 1200 µM; HIV-1 Protease Therapeutic Index (LD50 /IC50) (HIV-1 protease; LD50/IC50): 0.4
29 | ON=C(CCCN1CCC(O)(c2ccc(Cl)cc2)CC1)c1ccc(F)cc1 [UCSF4, 4-[4-(p-chlorophenyl)-4-hydroxypiperidinyl]-4'-fluorobutyrophenone oxime] | 100 | 116 | – | > 250 | 0.7 | –
30 | NN=C(CCCN1CCC(O)(c2ccc(Cl)cc2)CC1)c1ccc(F)cc1 [UCSF7, 4-[4-(p-chlorophenyl)-4-hydroxypiperidinyl]-4'-fluorobutyrophenone hydrazone] | 100 | 200 | – | > 250 | 0.9 | –
31 | OC1(c2ccccc2)CCN(CCCC2(c3ccc(F)cc3)OCCO2)CC1 [UCSF28, (1,2-ethyloxoacetal)-4-(4-phenyl-4-hydroxypiperidinyl)-4'-fluorobutyrophenone] | 410 | – | > 500 | > 500 | 1.2 | –
32 | O=C(CCCN1CCC(O)(c2ccccc2)CC1)c1ccc2ccccc2n1 [UCSF27] | – | – | 400 | < 200 | 2(1) | IC50 (HIV-1 protease; [3]): 198 µM
33 | O=C(CCCN1CCC(O)(c2ccc(Cl)cc2)CC1)c1ccncc1 [UCSF35] | – | – | > 500 | > 500 | > 0.8 | IC50 (HIV-1 protease; [3]): 650 µM
34 | O=C(CCC[N+]1(CCc2ccccc2)CCC(O)(c2ccc(Cl)cc2)CC1)c1ccc(F)cc1 (stereo not drawn) [UCSF15, 4-[4-(p-chlorophenyl)-4-hydroxy-[N-(2-phenyl)ethyl]piperidinyl]-4'-fluorobutyrophenone] | 150 | 250 | – | > 250 | 0.3 | –
